# Where “and” joins values, the source holds several entries; their conditions need not be identical. Identical values can stand only once.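 96-well plates; 48 h exposure; 5 concentrations. Endpoints by linear interpolation between flanking doses. Not reached: highest tested concentration assigned. The concentration for 50% growth inhibition is given as GI50. The concentration for full growth arrest is given as TGI.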
# Columns and labels:
# Assay in all cases: NCI anticancer screen, dose series, 48 h
# 786-0 renal = system: 786-0 renal
# ACHN renal = system: ACHN renal
# HCT-15 colon = system: HCT-15 colon
# IGROV1 ovarian = system: IGROV1 ovarian
# K-562 leukemia = system: K-562 leukemia
# LOX IMVI melanoma = system: LOX IMVI melanoma
# NCI-H460 lung = system: NCI-H460 lung
# NCI/ADR-RES ovarian = system: NCI/ADR-RES ovarian
# OVCAR-8 ovarian = system: OVCAR-8 ovarian
# SK-MEL-2 melanoma = system: SK-MEL-2 melanoma
SMILES,TGI (786-0 renal),TGI (ACHN renal),TGI (HCT-15 colon),TGI (IGROV1 ovarian),TGI (K-562 leukemia) [µM],TGI (LOX IMVI melanoma),TGI (NCI-H460 lung),TGI (NCI/ADR-RES ovarian) [µM],TGI (OVCAR-8 ovarian),TGI (SK-MEL-2 melanoma),GI50 (786-0 renal) [µM],GI50 (ACHN renal) [µM],GI50 (HCT-15 colon) [µM],GI50 (IGROV1 ovarian) [µM],GI50 (K-562 leukemia) [µM],GI50 (LOX IMVI melanoma) [µM],GI50 (NCI-H460 lung),GI50 (NCI/ADR-RES ovarian) [µM],GI50 (OVCAR-8 ovarian) [µM],GI50 (SK-MEL-2 melanoma) [µM]
O=C1C(CO)=C[C@@H](O)[C@H]2O[C@@H]12,> 100 µM,> 100 µM,> 100 µM,> 100 µM,> 100,65.4 µM,> 100 µM,> 100,> 100 µM,> 100 µM,,,,,,,,,,
CCCC(CCC)Oc1ccc(CCCC2=C(O)c3ccccc3C(=O)C2=O)cc1,16.8 µM,19 µM,15 µM,18.5 µM,10.7,10.5 µM,11.1 µM,22.5,69.7 µM,28 µM,4.11,6.69,3.76,4.93,3.31,3.34,3.03 µM,5.36,10.2,6.85
Nc1cc(N)cc(Cc2ccccc2)c1,> 100 µM,> 100 µM,> 100 µM,> 100 µM,> 100,> 100 µM,> 100 µM,> 100,> 100 µM,> 100 µM,,,,,,,,,,
OCC#CCCCCOCC#Cc1ccccc1C#CCOCCCCC#CCO,> 100 µM,58.7 µM,34.7 µM,> 100 µM,65.6,27.3 µM,> 100 µM,57.9,> 100 µM,> 100 µM,36.9,21.7,16.3,46.1,22.3,12.5,31.3 µM,23.6,52.3,51.1
COc1ccccc1Nc1nc2ccccc2c2occc12,38.7 µM,24.8 µM,27 µM,39.5 µM,28,17.4 µM,18 µM,32.4,> 50 µM,28.2 µM,15.3,10.6,10.5,14,12.9,9.28,8.09 µM,13.8,17.6,12
CC(=O)[O][Hg][CH2]C1(C)COC(C)([CH2][Hg][O]C(C)=O)CO1 (stereo not drawn),31 µM,2.84 µM,0.9 µM,7.12 µM,2.71,2.67 µM,40.4 µM,46,52.1 µM,16.4 µM,16.8,1.5,0.432,2.35,0.607,1.21,15.7 µM,19.1,6.03,4.31
CSC(=NC#N)S/C=C/C(=O)c1cccc2ccccc12,43.5 µM,82 µM,> 100 µM,48.1 µM,> 100,> 100 µM,> 100 µM,> 100,> 100 µM,> 100 µM,16.2,28.3,27.4,21,29.2,20.5,37.8 µM,40.8,31.9,34.3
COc1ccc(C2CC(c3cccc(OC)c3)=NN2C(=O)c2cc(OC)c(OC)c(OC)c2)cc1 (stereo not drawn),> 100 µM,> 100 µM,> 100 µM,> 100 µM,> 20.5,> 100 µM,> 100 µM,> 21.1,> 100 µM,> 100 µM,2.25,5.54,1.07,1.49,0.431,4.26,1.75 µM,1.55,5.83,10.3
Cn1ccc2c3c(=O)cc[nH]c3ccc21,> 100 µM,> 100 µM,> 100 µM,> 100 µM,> 100,> 100 µM,> 100 µM,> 100,> 100 µM,> 100 µM,> 100,> 100,> 100,> 100,> 100,> 100,> 100 µM,> 100,> 100,> 100
CC1=C/C(O)CC(=O)Cc2nc(co2)C(=O)N2CCC=C2C(=O)OC(C(C)C)C(C)/C=C\C(=O)NC/C=C\1 (stereo not drawn),90.1 µM and 60.8 µM,> 100 µM and 29.7 µM,> 89.5 µM and 46.6 µM,48.2 µM and 36.6 µM,> 100,34.7 µM and 36.1 µM,58 µM and > 100 µM,> 100,> 100 µM and 35 µM,> 100 µM,26.2,31.8,28.8,18.6,> 59.5,12.9,17.8 µM,> 100,24.8,10.1
Oc1c(Cl)cc(CN(Cc2cc(Cl)c(O)c(Cl)c2)C2CCCCC2)cc1Cl,> 100 µM,> 100 µM,> 100 µM,> 100 µM,> 100,> 100 µM,> 100 µM,> 100,> 100 µM,> 100 µM,,,,,,,,,,
COc1ccc(C2SCC(=O)N2NC(=O)C(O)c2ccccc2)cc1 (stereo not drawn),> 100 µM,> 100 µM,> 100 µM,> 100 µM,> 100,> 100 µM,> 100 µM,> 100,> 100 µM,> 100 µM,> 100,> 100,> 100,> 100,55.5,> 100,> 100 µM,> 100,> 100,> 100
OCc1ncc(-c2ccccc2)s1,> 100 µM,> 100 µM,> 100 µM,> 100 µM,> 100,> 100 µM,> 100 µM,> 100,> 100 µM,> 100 µM,> 100,> 100,> 100,> 100,> 100,> 100,> 100 µM,> 100,> 100,> 100
Oc1cc2c(cc1C(c1ccc3c(c1)OCO3)N1CCN(C(c3ccc4c(c3)OCO4)c3cc4c(cc3O)OCO4)CC1)OCO2 (stereo not drawn),25.8 µM,26.6 µM,20.3 µM,35.7 µM,65.1,18.7 µM,> 100 µM,55.4,29.9 µM,41.6 µM,,,,,,,,,,
Cc1[nH]c(=O)nc(N/N=C/c2ccc(Cl)cc2)c1C(=O)Nc1ccc(Cl)cc1,47.6 µM,> 89.2 µM,> 100 µM,> 100 µM,> 85.1,> 90.8 µM,39.7 µM,> 100,37.5 µM,> 100 µM,,,,,,,,,,
Cc1cc(S(=O)(=O)Nc2nc3ccccc3[nH]2)c(SCc2ccccc2)cc1Cl,> 100 µM,> 100 µM,> 100 µM,> 100 µM,> 100,> 100 µM,> 100 µM,> 100,> 100 µM,> 100 µM,62.9,32.8,> 100,82,66.3,28.4,> 100 µM,> 100,37.5,> 100
CC(=O)OC1CC2(O)C(CCC3(C)C(c4ccc(=O)oc4)CCC32O)C2(C)CCC(OC3OC(CO)C(O)C(O)C3O)C=C12 (stereo not drawn),0.03 µM,0.036 µM,0.134 µM,0.272 µM,0.175,0.109 µM,0.0282 µM,0.0541,0.126 µM,0.413 µM,0.0129,< 0.01,0.0343,0.0318,0.0295,0.0275,< 0.01 µM,0.0172,0.0294,0.0474
O=C(O)c1nnsc1-c1csnn1,> 100 µM,> 100 µM,> 100 µM,> 100 µM,> 100,> 100 µM,> 100 µM,> 100,> 100 µM,> 100 µM,,,,,,,,,,
Clc1ccc(N/N=C(\c2ccccc2)c2ccccn2)nc1,15.8 µM,> 36.8 µM and 12.5 µM,> 38.3 µM and 14.1 µM,,> 100,4.48 µM,> 39.9 µM and 13.6 µM,,,> 95.1 µM and 32.3 µM,0.291,0.0619,0.0505,0.139,0.0406,0.246,0.29 µM and 0.171 µM,0.109,0.276,0.796
N=C1N=C(N)S/C1=C\c1ccc2ncccc2c1,> 25 µM,> 25 µM,> 25 µM,> 25 µM,> 25,> 25 µM,> 25 µM,> 25,> 25 µM,> 25 µM,> 25,> 25,> 25,> 25,> 25,> 25,> 25 µM,> 25,> 25,> 25
CN(N=O)C(=O)Nc1ccc(C(=O)O)cc1,> 100 µM,> 100 µM,> 100 µM,> 100 µM,> 100,> 100 µM,> 100 µM,> 100,> 100 µM,> 100 µM,,,,,,,,,,
O=C(Nc1cc(C(F)(F)F)cc(C(F)(F)F)c1)Nc1ccc(OCc2nnc(-c3ccc(Cl)cc3)o2)c(F)c1,4.68 µM,9.2 µM,14 µM,39.2 µM,24.3,5.31 µM,7.65 µM,7.91,5.73 µM,6.26 µM,2,0.873,1.99,3.75,2.37,2.07,2 µM,1.85,1.6,2.73
COc1cc2oc(-c3cccc(C(=O)Nc4ccc(C)cc4)c3)cc(=O)c2c(OC)c1OC,6.11 µM,> 100 µM,> 100 µM,> 100 µM,> 100,3.97 µM,> 100 µM,> 100,> 100 µM,9.55 µM,2.06,2.69,1.96,2.99,3.4,0.32,1.47 µM,1.46,2.9,3.33
O=C1c2ccccc2C(=O)c2sc(Nc3ccc(Cl)cc3)nc21,3.93 µM,3.06 µM,3.8 µM,6.9 µM,5.12,2.91 µM,11.7 µM,5.52,4.49 µM,8.94 µM,,,,,,,,2.1,,
COc1ccc2c(c1)C(=O)c1c-2n(CCCN=[N+]=[N-])c(=O)c2cc(N)ccc12,> 100 µM,> 100 µM,> 100 µM,> 100 µM,> 100,> 100 µM,> 100 µM,> 100,> 100 µM,> 100 µM,> 100,> 100,> 100,> 100,> 100,> 100,> 100 µM,> 100,> 100,> 100
O=C(c1ccccc1)c1ccc(O)c2ncccc12,26.5 µM,15.7 µM,25.9 µM,11.9 µM,> 100,13.1 µM,16.2 µM,6.03,41 µM,43.3 µM,5.09,3.46,1.66,2.4,3.4,1.87,1.75 µM,0.428,4.08,12
Cc1ccc(S(=O)(=O)N[C@@H](Cc2ccccc2)C(=O)CCl)cc1,27 µM,28.1 µM,27.5 µM,42 µM,31.4,10.4 µM,> 100 µM,65.7,> 100 µM,35.8 µM,10.6,13,10.8,8.25,4.26,2.31,21.8 µM,22.3,17.8,15
CCCCCCCC(=O)NS(=O)(=O)c1ccccc1,> 100 µM,> 100 µM,> 100 µM,> 100 µM,> 100,> 100 µM,> 100 µM,> 100,> 100 µM,> 100 µM,,,,,,,,,,
CNC(=O)/C(=C/c1ccc(OC)cc1)c1cc(OC)c(OC)c(OC)c1,> 100 µM,> 100 µM,> 100 µM,> 100 µM,> 80.9,> 100 µM,47.5 µM,> 100,55.3 µM,> 100 µM,,,,,,,,,,
